Data set [1] has as its target Forkhead box protein O1 (Homo sapiens) (UniProt Q12778). The note with it: HEK293, dose 1-50000 nM.
Description: Inhibition of human FOXO1 expressed in HEK293 cells at 1 nM to 50 uM by Dual-Glo luciferase assay relative to control
Data set [2] can be described thus: Metabolic stability in human hepatocytes assessed as compound remaining at 0.3 uM measured upto 90 mins by LC-MS/MS analysis. The data set is classed as ADME, cell-based, Hepatocyte. The note with it: read-out: Stability.

Chain of Forkhead box protein O1 (Homo sapiens) (Q12778 whole entry): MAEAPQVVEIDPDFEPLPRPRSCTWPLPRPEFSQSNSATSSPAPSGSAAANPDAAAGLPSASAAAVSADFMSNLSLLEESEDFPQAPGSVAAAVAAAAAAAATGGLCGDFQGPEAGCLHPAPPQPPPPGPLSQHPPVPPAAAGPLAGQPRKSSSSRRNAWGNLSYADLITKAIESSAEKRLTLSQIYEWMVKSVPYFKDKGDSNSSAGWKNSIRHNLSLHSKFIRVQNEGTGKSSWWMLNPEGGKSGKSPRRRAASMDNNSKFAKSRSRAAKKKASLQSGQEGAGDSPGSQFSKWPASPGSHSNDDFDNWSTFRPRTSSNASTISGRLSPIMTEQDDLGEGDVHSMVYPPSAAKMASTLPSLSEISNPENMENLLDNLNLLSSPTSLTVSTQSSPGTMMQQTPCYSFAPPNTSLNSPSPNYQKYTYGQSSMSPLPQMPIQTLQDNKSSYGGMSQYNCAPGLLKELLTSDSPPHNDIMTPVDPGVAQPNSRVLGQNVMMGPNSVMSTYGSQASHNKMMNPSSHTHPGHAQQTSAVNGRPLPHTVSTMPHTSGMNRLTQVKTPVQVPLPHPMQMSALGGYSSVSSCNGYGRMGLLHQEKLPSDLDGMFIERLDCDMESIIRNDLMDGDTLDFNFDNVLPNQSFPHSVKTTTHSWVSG

By inhibition is commonly meant the percentage by which the read-out fell short of the control. A higher inhibition goes with a strong effect. `COc1ccc(C(=O)Nc2cc(-c3nc4cc(OC(F)(F)F)ccc4[nH]3)[nH]n2)cc1Cl`: in data set [1], the inhibition is above 40%.

Turning to `CC(=O)N1CCN(c2ccc(C(=O)Nc3cc(-c4nc5ccccc5[nH]4)n[nH]3)cc2)CC1`, the inhibition in data set [1] was above 40%. Compound `Nc1cc(-c2nc3ccccc3[nH]2)n[nH]1` gave an inhibition in data set [1] below 40%. Same read-out and setting: the same measure for `CC(=O)Nc1cc(-c2nc3ccccc3[nH]2)n[nH]1`: below 40%. Regarding `O=C(Nc1cc(-c2nc3ccccc3[nH]2)n[nH]1)c1ccc(N2CCNCC2)cc1`, the remaining at 1.5 h, 0.3 µM in data set [2] was found to be 110%. In the case of `COc1ccc(C(=O)Nc2cc(-c3nc4c(C(F)(F)F)cccc4[nH]3)[nH]n2)cc1Cl`, the inhibition in data set [1] was above 40%. The compound `COc1ccc(C(=O)Nc2cc(-c3nc4cc(C(F)(F)F)ccc4[nH]3)[nH]n2)cc1Cl` displayed an inhibition in data set [1] above 40%.

For the compound `CN1CCN(c2ccc(C(=O)Nc3cc(-c4nc5ccccc5[nH]4)n[nH]3)cc2)CC1`, the inhibition in data set [1] is above 40%. The same measure, in the same setting: the same measure for `CN1CCC(c2ccc(C(=O)Nc3cc(-c4nc5ccccc5[nH]4)n[nH]3)cc2)CC1`: above 40%.

The values above are taken from ChEMBL document CHEMBL5393447, “Selective foxo inhibitors for treatment of diabetes and other disorders related to impaired pancreatic function” (2022).
